Measurements: US20080119534A1, “Benzimidazole Derivatives as Therapeutic Agents” (Trans Tech Pharma, Inc, priority 2001, published 2008)
Where a name gives a salt, the structure may show the parent alone.

Assays:
sRAGE (ligand S-100b) = target: T1, sRAGE (ligand S-100b) (Homo sapiens, UniProt Q15109); test: ELISA assay: inhibition of sRAGE binding to plate-bound S100b; details: sRAGE binding to immobilised S100b; concentration at which 50% signal has been inhibited
T1 construct: extracellular domain can be isolated by proteolysis of RAGE to generate soluble RAGE (sRAGE) comprised of the V and C domains
Procedure: (§1) S100b, β-amyloid and CML (500 ng/100 μL/well) in 100 mM sodium bicarbonate/sodium carbonate buffer (pH 9.8) is loaded onto the wells of a NUNC Maxisorp flat bottom 96-well microtitre plate. The plate is incubated at 4° C. overnight. The wells are aspirated and treated with 50 mM imidazole buffer saline (pH 7.2) (with 1 mM CaCl2/MgCl2) containing 1% bovine serum albumin (BSA) (300 μL/well) for two h at 37° C.
(§2) Test compounds are dissolved in nanopure water (concentration: 10-100 μM). DMSO may be used as co-solvent. 25 μL of test compound solution in 2% DMSO is added, along with 75 μL sRAGE (4.0×10^−4 mg/mL FAC) to each well and samples are incubated for 1 h at 37° C. The wells are washed 3 times with 155 mM NaCl pH 7.2 buffer saline and are soaked 10 seconds between each wash.
(§3) Non-radioactive binding is performed by adding:
(§4) 10 μL Biotinylated goat F(ab′)2 Anti-mouse IgG. (8.0×10^−4 mg/mL, FAC)
(§5) 10 μL Alkaline phosphatase Streptavidin (3×10^−3 mg/mL FAC)
(§6) 10 μL Polyclonal antibody for sRAGE (FAC 6.0×10^−3 mg/mL)
(§7) to 5 mL 50 mM imidazole buffer saline (pH 7.2) containing 0.2% bovine serum albumin and 1 mM CaCl2. The mixture is incubated for 30 minutes at 37° C. 100 μL complex is added to each well and incubation is allowed to proceed at rt for 1 h. Wells are washed 3 times with wash buffer and soaked 10 s between each wash. 100 μL 1 mg/mL (pNPP) in 1 M diethanolamine (pH adjusted to 9.8 with HCl) is added. Color is allowed to develop in the dark for 1 to 2 h at rt. The reaction is quenched with 10 μL of stop solution (0.5 N NaOH in 50% ethanol) and the absorbance is measured spectrophotometrically with a microplate reader at 405 nm.

sRAGE (ligand Amyloid-β) = target: T2, sRAGE (ligand Amyloid-β) (Homo sapiens, UniProt Q15109); test: ELISA assay: inhibition of sRAGE binding to plate-bound β-amyloid; details: sRAGE binding to immobilised β-amyloid; concentration at which 50% signal has been inhibited
T2 construct: extracellular domain can be isolated by proteolysis of RAGE to generate soluble RAGE (sRAGE) comprised of the V and C domains
Procedure: as §1, §2, §3, §4, §5, §6, §7

[1] = target: T3, sRAGE (ligand Carboxymethyl Lysine (CML)) (Homo sapiens, UniProt Q15109); test: ELISA assay: inhibition of sRAGE binding to plate-bound CML; details: sRAGE binding to immobilised CML; concentration at which 50% signal has been inhibited
T3 construct: extracellular domain can be isolated by proteolysis of RAGE to generate soluble RAGE (sRAGE) comprised of the V and C domains
Procedure: as §1, §2, §3, §4, §5, §6, §7

T1 sequence (Q15109 23-342 limits assumed): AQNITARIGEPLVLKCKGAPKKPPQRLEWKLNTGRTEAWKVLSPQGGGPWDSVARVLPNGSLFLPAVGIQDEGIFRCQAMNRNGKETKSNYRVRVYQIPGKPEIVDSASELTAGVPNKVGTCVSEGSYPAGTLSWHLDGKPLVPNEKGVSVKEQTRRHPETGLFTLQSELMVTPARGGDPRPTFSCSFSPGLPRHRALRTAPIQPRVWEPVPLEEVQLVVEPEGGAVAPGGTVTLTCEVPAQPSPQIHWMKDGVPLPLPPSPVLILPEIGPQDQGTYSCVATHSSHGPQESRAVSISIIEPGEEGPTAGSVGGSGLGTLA
T3 sequence (Q15109 23-342 limits assumed): as above
T2 sequence (Q15109 23-342 limits assumed): as above

Row | SMILES | IC50 (sRAGE (ligand S-100b)) [µM] | IC50 (sRAGE (ligand Amyloid-β)) [µM] | IC50 [1] [µM]
1 | CCCCn1c([C@@H](Cc2ccc(OCc3ccccc3)cc2)NC(=O)OC(C)(C)C)nc2ccc(OCCCN(CC)CC)cc21 [Example 1, 2-[(1R)-2-(4-Benzyloxyphenyl)-1-tert-butoxycarbonylamino-1-ethyl]-3-butyl-5-(3-diethylamino-1-propoxy)benzimidazole] | 1 to 5 | 1 to 5 | 0.5 to 1
2 | CCCCn1c([C@H](N)Cc2ccc(OCc3ccccc3)cc2)nc2ccc(OCCCN(CC)CC)cc21 [Example 2, 2-[(1R)-2-(4-Benzyloxyphenyl)-1-amino-1-ethyl]-3-butyl-5-(3-diethylamino-1-propoxy)benzimidazoleTrihydrochloride] | 1 to 5 | 1 to 5 | 1 to 5
3 | CCCCn1c([C@@H](Cc2ccc(OCc3ccccc3)cc2)NC(=O)OC(C)(C)C)nc2cc(OCCCN(CC)CC)ccc21 [Example 3, 2-[(1R)-2-(4-Benzyloxyphenyl)-1-tert-butoxycarbonylamino-1-ethyl]-3-butyl-6-(3-diethylamino-1-propoxy)benzimidazole] | 1 to 5 | 1 to 5 | 1 to 5
4 | CCCCn1c([C@H](N)Cc2ccc(OCc3ccccc3)cc2)nc2cc(OCCCN(CC)CC)ccc21 [Example 4, 2-[(1R)-2-(4-Benzyloxyphenyl)-1-amino-1-ethyl]-3-butyl-6-(3-diethylamino-1-propoxy)benzimidazole] | 1 to 5 | 1 to 5 | 1 to 5
5 | CCN(CC)CCCOc1ccc2[nH]c([C@@H](Cc3ccc(OCc4ccccc4)cc3)NC(=O)OC(C)(C)C)nc2c1 [Example 5, 2-[(1R)-2-(4-Benzyloxyphenyl)-1-tert-butoxycarbonylamino-1-ethyl]-6-(3-diethylamino-1-propoxy)benzimidazole] | 10 to 20 | – | 5 to 10
6 | CCN(CC)CCCOc1ccc2[nH]c([C@H](N)Cc3ccc(OCc4ccccc4)cc3)nc2c1 [Example 6, 2-[(1R)-2-(4-Benzyloxyphenyl)-1-amino-1-ethyl]-6-(3-diethylamino-1-propoxy)benzimidazole] | 5 to 10 | 5 to 10 | 1 to 5
7 | CCCCn1c(C(Cc2cccc(OCc3ccccc3)c2)NC(=O)OC(C)(C)C)nc2ccc(OCCCN(CC)CC)cc21 (centres unmarked) [Example 7, 2-[2-(3-Benzyloxyphenyl)-1-(tert-butoxycarbonylamino)-1-ethyl]-3-butyl-5-(3-diethylamino-1-propoxy)benzimidazole] | 1 to 5 | 1 to 5 | 1 to 5
8 | CCCCn1c([C@@H](Cc2ccc(OCC)cc2)NC(=O)OC(C)(C)C)nc2ccc(OCCCN(CC)CC)cc21 [Example 8, 2-[(1R)-2-(4-Ethoxyphenyl)-1-(tert-butoxycarbonylamino)-1-ethyl]-3-butyl-5-(3-diethylamino-1-propoxy)benzimidazole] | 5 to 10 | 5 to 10 | 1 to 5
9 | CCCCn1c([C@@H](Cc2ccc(OCCc3ccc(Cl)cc3)cc2)NC(=O)OC(C)(C)C)nc2ccc(OCCCN(CC)CC)cc21 [Example 9] | 0.5 to 1 | 0.5 to 1 | 0.5 to 1
10 | CCN(CC)CCCOc1ccc2nc([C@@H](Cc3ccc(OCc4ccccc4)cc3)NC(=O)OC(C)(C)C)n(CCCN(CC)CC)c2c1 [Example 10, 2-[(1R)-2-(4-Benzyloxyphenyl)-1-(tert-butoxycarbonylamino)-1-ethyl]-3-(3-diethylamino-1-propyl)-5-(3-diethylamino-1-propoxy)benzimidazole] | 1 to 5 | 5 to 10 | 1 to 5
11 | CCN(CC)CCCOc1ccc2nc([C@@H](Cc3ccc(OCc4ccccc4)cc3)NC(=O)OC(C)(C)C)n(CC)c2c1 [Example 11, 2-[(1R)-2-(4-Benzyloxyphenyl)-1-(tert-butoxycarbonylamino)-1-ethyl]-3-ethyl-5-(3-diethylamino-1-propoxy)benzimidazole] | 1 to 5 | 1 to 5 | 1 to 5
12 | CCN(CC)CCCOc1ccc2nc([C@H](N)Cc3ccc(OCc4ccccc4)cc3)n(CCCN(CC)CC)c2c1 [Example 12, 2-[(1R)-2-(4-Benzyloxyphenyl)-1-amino-1-ethyl]-3-(3-diethylamino-1-propyl)-5-(3-diethylamino-1-propoxy)benzimidazole] | 1 to 5 | 1 to 5 | 1 to 5
13 | CCN(CC)CCCOc1ccc2nc([C@@H](Cc3ccc(OCc4ccccc4)cc3)NC(=O)OC(C)(C)C)n(Cc3ccccc3)c2c1 [Example 13, 2-[(1R)-2-(4-Benzyloxyphenyl)-1-(tert-butoxycarbonylamino)-1-ethyl]-3-benzyl-5-(3-diethylamino-1-propoxy)benzimidazole] | 5 to 10 | 5 to 10 | 5 to 10
14 | CCN(CC)CCCOc1ccc2nc([C@H](N)Cc3ccc(OCc4ccccc4)cc3)n(Cc3ccccc3)c2c1 [Example 14, 2-[(1R)-2-(4-Benzyloxyphenyl)-1-amino-1-ethyl]-3-benzyl-5-(3-diethylamino-1-propoxy)benzimidazole] | 5 to 10 | 10 to 20 | 5 to 10
15 | CCCn1c([C@@H](Cc2ccc(OCc3ccccc3)cc2)NC(=O)OC(C)(C)C)nc2ccc(OCCCN(CC)CC)cc21 [Example 15, 2-[(1R)-2-(4-Benzyloxyphenyl)-1-(tert-butoxycarbonylamino)-1-ethyl]-3-propyl-5-(3-diethylamino-1-propoxy)benzimidazole] | 5 to 10 | 5 to 10 | 5 to 10
16 | CCCn1c([C@H](N)Cc2ccc(OCc3ccccc3)cc2)nc2ccc(OCCCN(CC)CC)cc21 [Example 16, 2-[(1R)-2-(4-Benzyloxyphenyl)-1-amino-1-ethyl]-3-propyl-5-(3-diethylamino-1-propoxy)benzimidazole] | 5 to 10 | 10 to 20 | 10 to 20
